From patent US11753407B2, “Compounds for treating spinal muscular atrophy” (PTC Therapeutics, Inc., priority 2012, dated 2023) come the findings set out here.

Data set [1] deals with Smn protein in SMA patient fibroblast cells (GM03813). The experiment in a line: Smn protein assay in cultured cells (SMN HTRF). It counts as cell-based, human. Conditions: SMA patient fibroblast cells, 48 hours; for EC1.5x for Smn protein expression: 7-point concentration curve, SMN HTRF, concentration producing 1.5 times Smn protein vs DMSO vehicle control; for maximum fold (Fold) increase of Smn protein: 7-point concentration data, fold relative to vehicle control. The essentials: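 Smn protein quantified by HTRF with anti-SMN d2/kryptate pair, 665/620 nm ratio blank-corrected, in RIPA lysates of GM03813 fibroblasts after 48 h compound exposure (7 concentrations, 3.16-fold steps, triplicates). Values: concentration producing 1.5× vehicle Smn level, and maximal fold increase.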

In data set [2] the test system is SMN2 minigene mRNA (SMN2-A minigene) in HEK293H cells. Kind of data set: SMN2 minigene mRNA splicing RT-qPCR assay in cultured cells. The data set is classed as cell-based, human. The settings on record: Homo sapiens, HEK293-H; concentration increasing full length SMN2 mRNA 1.5-fold relative to vehicle-treated cells; HEK293H cells with SMN2-A minigene, 24 hours, 7-point concentration data; read-out: EC1.5x for production of full length SMN2 mRNA. The essentials:
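EC1.5× = concentration raising full-length SMN2 minigene mRNA 1.5-fold over vehicle, from 7-point curves in duplicate. Stably transfected HEK293H cells exposed 24 h at 37 °C; lysates assayed by multiplex RT-qPCR, minigene FL signal normalized to GAPDH via modified ΔΔCt.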
A general note: Real-time PCR tracks product formation cycle by cycle.

Broadly, the melting point is the temperature, or range, at which the solid turns liquid. For `CCN(CC)CC1CN(c2ccc3nc(-c4cc5c(C)nc(C)cn5n4)cc(=O)n3c2)C1` [Compound 781, 7-{3-[(diethylamino)methyl]azetidin-1-yl}-2-(4,6-dimethylpyrazolo[1,5-a]pyrazin-2-yl)-4H-pyrido[1,2-a]pyrimidin-4-one], the melting point lay within 205 to 207 °C. Also, in data set [1], the “EC1.5x for Smn protein expression” value is listed as “**** (an EC1.5x≤0.3 μM is indicated by four stars (****))” and the “maximum fold (Fold) increase of Smn protein” value (shortened to “maximum fold (Fold) increase”) is recorded as “***** (a fold increase >1.65 is indicated by five stars (*****))”. The EC (1.5-fold increase) in data set [2] was less than 0.1 µM.
The compound `CCc1nc(C)cn2cc(-c3cc(=O)n4cc(N5CCN6CCC[C@H]6C5)ccc4n3)cc12` [Compound 782, 2-(1-ethyl-3-methylpyrrolo[1,2-a]pyrazin-7-yl)-7-[(8aS)-hexahydropyrrolo[1,2-a]pyrazin-2(1H)-yl]-4H-pyrido[1,2-a]pyrimidin-4-one] registered a melting point of 220 to 222 °C. In data set [1], the “EC1.5x for Smn protein expression” value is on record as “**** (an EC1.5x≤0.3 μM is indicated by four stars (****))” and the “maximum fold (Fold) increase” value is recorded as “***** (a fold increase >1.65 is indicated by five stars (*****))”. The EC (1.5-fold increase) in data set [2] was less than 0.1 µM.
Take `CCc1nc(C)cn2nc(-c3cc(=O)n4cc(N5CCN[C@H](C)C5)cc(C)c4n3)cc12` [Compound 783, 2-(4-ethyl-6-methylpyrazolo[1,5-a]pyrazin-2-yl)-9-methyl-7-[(3R)-3-methylpiperazin-1-yl]-4H-pyrido[1,2-a]pyrimidin-4-one]: the melting point was 223 to 233 °C. Also, in data set [1], the “EC1.5x for Smn protein expression” value is recorded as “**** (an EC1.5x≤0.3 μM is indicated by four stars (****))” and the “maximum fold (Fold) increase” value is “***** (a fold increase >1.65 is indicated by five stars (*****))”. For the same compound, in data set [2], the EC (1.5-fold increase) was less than 0.1 µM.
`Cc1cc(C2CCN(C)CC2)cn2c(=O)cc(-c3ccc4c(cnn4C)c3)nc12` [Compound 784, 9-methyl-2-(1-methyl-1H-indazol-5-yl)-7-(1-methylpiperidin-4-yl)-4H-pyrido[1,2-a]pyrimidin-4-one] showed a melting point of 255 to 263 °C. In data set [1], the “EC1.5x for Smn protein expression” value was “*** (an EC1.5× between >0.3 μM and ≤1 μM is indicated by three stars (***))”; the “maximum fold (Fold) increase” value is “**** (a fold increase between >1.5 and ≤1.65 is indicated by four stars (****))”. Also, the EC (1.5-fold increase) in data set [2] lay in the range of 0.1 to 0.3 µM.
The compound `CCc1nc(C)cn2nc(-c3cc(=O)n4cc(N5CCN(C)[C@H](C)C5)cc(C)c4n3)cc12` [Compound 785, 7-[(3R)-3,4-dimethylpiperazin-1-yl]-2-(4-ethyl-6-methylpyrazolo[1,5-a]pyrazin-2-yl)-9-methyl-4H-pyrido[1,2-a]pyrimidin-4-one] displayed a melting point of 234 to 240 °C. Moreover, in data set [1], the “EC1.5x for Smn protein expression” value was “**** (an EC1.5x≤0.3 μM is indicated by four stars (****))” and the “maximum fold (Fold) increase” value is recorded as “***** (a fold increase >1.65 is indicated by five stars (*****))”. The EC (1.5-fold increase) in data set [2] is less than 0.1 µM.
`CCN1CCC(c2cc(C)c3nc(-c4ccc5c(cnn5C)c4)cc(=O)n3c2)CC1` [Compound 786, 7-(1-ethylpiperidin-4-yl)-9-methyl-2-(1-methyl-1H-indazol-5-yl)-4H-pyrido[1,2-a]pyrimidin-4-one] had a melting point of 236 to 240 °C. In addition, in data set [1], the “EC1.5x for Smn protein expression” value is “*** (an EC1.5× between >0.3 μM and ≤1 μM is indicated by three stars (***))”; the “maximum fold (Fold) increase” value was “**** (a fold increase between >1.5 and ≤1.65 is indicated by four stars (****))”. Also, the EC (1.5-fold increase) in data set [2] was in the range of 0.1 to 0.3 µM.
Compound `CCc1nc(C)cn2nc(-c3cc(=O)n4cc(N5CCN[C@@H](C)C5)cc(C)c4n3)cc12` [Compound 787, 2-(4-ethyl-6-methylpyrazolo[1,5-a]pyrazin-2-yl)-9-methyl-7-[(3S)-3-methylpiperazin-1-yl]-4H-pyrido[1,2-a]pyrimidin-4-one] had a melting point of 227 to 236 °C. Also, in data set [1], the “EC1.5x for Smn protein expression” value was “**** (an EC1.5x≤0.3 μM is indicated by four stars (****))” and the “maximum fold (Fold) increase” value is reported as “***** (a fold increase >1.65 is indicated by five stars (*****))”. For the same compound, the EC (1.5-fold increase) in data set [2] was less than 0.1 µM.
The matching figures for `Cc1cc(C2CCN(CCO)CC2)cn2c(=O)cc(-c3ccc4c(cnn4C)c3)nc12` [Compound 788, 7-[1-(2-hydroxyethyl)piperidin-4-yl]-9-methyl-2-(1-methyl-1H-indazol-5-yl)-4H-pyrido[1,2-a]pyrimidin-4-one]: 225 to 228 °C, “**** (an EC1.5x≤0.3 μM is indicated by four stars (****))”, “***** (a fold increase >1.65 is indicated by five stars (*****))” and less than 0.1 µM.
With `CCc1nc(C)cn2nc(-c3cc(=O)n4cc(N5CCN(C)[C@@H](C)C5)cc(C)c4n3)cc12` [Compound 789, 7-[(3S)-3,4-dimethylpiperazin-1-yl]-2-(4-ethyl-6-methylpyrazolo[1,5-a]pyrazin-2-yl)-9-methyl-4H-pyrido[1,2-a]pyrimidin-4-one], the melting point fell in the range of 235 to 241 °C. In addition, in data set [1], the “EC1.5x for Smn protein expression” value was “**** (an EC1.5x≤0.3 μM is indicated by four stars (****))” and the “maximum fold (Fold) increase” value is “***** (a fold increase >1.65 is indicated by five stars (*****))”. Moreover, the EC (1.5-fold increase) in data set [2] was less than 0.1 µM.
On to `Cc1nc(C2=CCNCC2)cn2c(=O)cc(-c3ccc4nn(C)cc4c3)nc12` [Compound 791, 9-methyl-2-(2-methyl-2H-indazol-5-yl)-7-(1,2,3,6-tetrahydropyridin-4-yl)-4H-pyrazino[1,2-a]pyrimidin-4-one], for which the melting point is > 240 °C (dec.). In data set [1], the “EC1.5x for Smn protein expression” value was “**** (an EC1.5x≤0.3 μM is indicated by four stars (****))” and the “maximum fold (Fold) increase” value is “***** (a fold increase >1.65 is indicated by five stars (*****))”. Moreover, the EC (1.5-fold increase) in data set [2] was less than 0.1 µM.
Consider `CCc1nc(C)cn2nc(-c3cc(=O)n4cc(C5CCN(C6CCC6)CC5)cc(C)c4n3)cc12` [Compound 792, 7-(1-cyclobutylpiperidin-4-yl)-2-(4-ethyl-6-methylpyrazolo[1,5-a]pyrazin-2-yl)-9-methyl-4H-pyrido[1,2-a]pyrimidin-4-one], for which the melting point was 231 to 237 °C. Further, in data set [1], the “EC1.5x for Smn protein expression” value is “*** (an EC1.5× between >0.3 μM and ≤1 μM is indicated by three stars (***))”; the “maximum fold (Fold) increase” value was “***** (a fold increase >1.65 is indicated by five stars (*****))”. The EC (1.5-fold increase) in data set [2] was less than 0.1 µM.
As for `CCc1nc(C)cn2nc(-c3cc(=O)n4cc(C5CCN(CCO)CC5)cc(C)c4n3)cc12` [Compound 793, 2-(4-ethyl-6-methylpyrazolo[1,5-a]pyrazin-2-yl)-7-[1-(2-hydroxyethyl)piperidin-4-yl]-9-methyl-4H-pyrido[1,2-a]pyrimidin-4-one], the melting point was 210 to 216 °C. In data set [1], the “EC1.5x for Smn protein expression” value was “**** (an EC1.5x≤0.3 μM is indicated by four stars (****))” and the “maximum fold (Fold) increase” value is given as “***** (a fold increase >1.65 is indicated by five stars (*****))”. In data set [2], the EC (1.5-fold increase) was less than 0.1 µM.
In turn, `CCc1cc(-c2cc(=O)n3cc(N4CCN5CCC[C@@H]5C4)ccc3n2)cn2cc(C)nc12` [Compound 794, 2-(8-ethyl-2-methylimidazo[1,2-a]pyridin-6-yl)-7-[(8aR)-hexahydropyrrolo[1,2-a]pyrazin-2(1H)-yl]-4H-pyrido[1,2-a]pyrimidin-4-one] had a melting point of 231 to 235 °C. For the same compound, in data set [1], the “EC1.5x for Smn protein expression” value is listed as “**** (an EC1.5x≤0.3 μM is indicated by four stars (****))” and the “maximum fold (Fold) increase” value is on record as “***** (a fold increase >1.65 is indicated by five stars (*****))”. Also, in data set [2], the EC (1.5-fold increase) was less than 0.1 µM.
`CCc1cc(-c2cc(=O)n3cc(N4CCN5CCC[C@H]5C4)ccc3n2)cn2cc(C)nc12` [Compound 795, 2-(8-ethyl-2-methylimidazo[1,2-a]pyridin-6-yl)-7-[(8aS)-hexahydropyrrolo[1,2-a]pyrazin-2(1H)-yl]-4H-pyrido[1,2-a]pyrimidin-4-one] displayed a melting point of 229 to 233 °C. For the same compound, in data set [1], the “EC1.5x for Smn protein expression” value is “**** (an EC1.5x≤0.3 μM is indicated by four stars (****))” and the “maximum fold (Fold) increase” value is on record as “***** (a fold increase >1.65 is indicated by five stars (*****))”. Also, the EC (1.5-fold increase) in data set [2] was less than 0.1 µM.
Turning to `Cc1nc(C2CCNCC2)cn2c(=O)cc(-c3ccc4nn(C)cc4c3)nc12` [Compound 796, 9-methyl-2-(2-methyl-2H-indazol-5-yl)-7-(piperidin-4-yl)-4H-pyrazino[1,2-a]pyrimidin-4-one], the melting point is 229 to 235 °C. Besides, in data set [1], the “EC1.5x for Smn protein expression” value is recorded as “**** (an EC1.5x≤0.3 μM is indicated by four stars (****))” and the “maximum fold (Fold) increase” value is listed as “***** (a fold increase >1.65 is indicated by five stars (*****))”. In addition, the EC (1.5-fold increase) in data set [2] is less than 0.1 µM.
